Columns and labels:
Mouse astrocyte cells = assay: CXCL1 and IL-6 ELISA of astrocyte culture media after RAC treatment; assay type: cell-based
Protocol: To stimulate astrocytes into a reactive state found in aging and neurodegenerative diseases per previous publications (Liddelow et al., 2017; Barbar et al., 2020), a combination of the cytokines TNF-α and IL-1α, and complement factor C1q, were added at 30 ng/mL, 3 ng/mL, and 400 ng/mL, respectively, into astrocyte culture media to make 'reactive astrocyte cocktail' (RAC) media. […] Bachem, Cat. #4029110), BAY-11-7082 (50 μM; Abcam, Cat. #ab141228) or equal volume of vehicle (0.01% DMSO in PBS) (hereafter referred to as 'RAC treatment'). Cells in Groups 3-6 were treated with RAC for 24 hours, with or without the test compounds (n=4 per group). • Group 1: Control [CON] • Group 2: CON+BGE-105 (50 nM) [CON+105] • Group 3: Reactive control treated with RAC only [RAC] • Group 4: RAC+BGE-105 (50 nM) [RAC+105] • Group 5: RAC+Pyrm-Apelin-13 (50 nM) • Group 6: RAC+BAY-11-7082 (NF-κB inhibitor; 50 μM) [RAC+BAY] Media from each tested cell group was collected for cytokine release analysis. Cells were lysed for RNA collection and RT-PCR was performed to synthesis cDNA under standard conditions. Next, transcriptome analysis was performed to determine the expression level of astrocyte genes or astrocyte responsive genes. Changes of expression was normalized to β-actin (FIGS. 8 and 9). Exemplary biomarkers include CCL2, CXCL10, CXCL11, CXCL1, CXCL2, CXCL3, CXCL8, EDN1, […]3, CIS, CTRL, C3, CFB, VEGF, and IL-6. For analysis of cytokines secreted by astrocytes, culture media was collected after RAC treatment, centrifuged at 10,000 RPM for 5 minutes to pellet any debris, and supernatant was transferred to a new tube and assayed immediately or frozen at -80° C. For individual analysis of CXCL1 or IL-6 concentrations, cell culture supernatant was diluted 1:50 or 1:10, respectively, and assessed using mouse-specific ELISA kits per manufacturer's protocols (R&D Systems, Cat. #DY453 and #DY406).

[1] = tested on: 26-month-old female C57BL/6 mice; assay: Age-dependent BBB permeability model, Evans blue assay; assay type: in vivo, mouse; settings: 50 mg/kg BID P.O. one week; aged versus aged+BGE-105; p<0.01
Protocol: The mice were handled in accordance with principles and guidelines established by the “Guide for the Care and Use of Laboratory Animals” and overseen by the BioAge Lab's institutional animal care and use committee (IACUC). Mice were housed conventionally in a constant temperature (20-22° C.) and humidity (40%-60%) animal room with a 12/12 h light/dark cycle and free access to food and water.
For assessment of BGE-105 activity, the age-dependent BBB permeability model was established using 26-month-old female C57BL/6 mice. Mice were randomized based on the body weight and body condition scores to two groups (vehicle or BGE-105, n=8). Mice were administered P.O. vehicle (Control) or BGE-105 via P.O. at 50 mg/kg (BID) for one week (7 days). See FIG. 4B for a schematic of the protocol. The BBB permeability was measured via Evans blue assay. Mice were intravenously injected with Evans Blue (2%, 75 ul/30 g BW). […]
Frozen olfactory bulb and hippocampus were placed in 200 μl of extraction buffer (50% trichloroacetic acid in formamide) for 24 hours. […] Endpoint fluorescence was recorded (620 nm excitation, 680 nm emission) with a SpectraMax iD5 (Molecular Devices), normalized to tissue weight, and relative treatment-related change in fluorescence (a measure of blood-brain barrier leakage) was calculated compared to untreated aged mice.

[2] = tested on: primary SOD1^G93A mouse astrocytes; assay: Primary SOD1^G93A mouse astrocytes: cytokine release and NF-κB signaling; assay type: cell-based
Text: The study characterizes effects of BGE-105 on primary astrocytes derived from wildtype and SOD1^G93A mice in vitro. This includes measuring effects on gene expression, secretion of inflammatory cytokines, and glutamate uptake.
The study utilizes primary mouse astrocyte and neuron cultures generated from the SOD1^G93A mouse model of familial ALS as previously described (Lundquist et al. 2019. Exercise induces region-specific remodeling of astrocyte morphology and reactive astrocyte gene expression patterns in male mice. Journal of Neuroscience Research, 97(9), 1081-1094) with some modifications. Briefly, whole spinal cords are resected from PNDO-4 (postnatal day) SOD1^G93A+ pups and wildtype littermates. […]
Astrocytes from wildtype and SOD1^G93A mice are first studied in isolation to compare transcriptomic and cytokine release profiles. […] ACM (astrocyte-conditioned media) are analyzed for release of cytokines and neurotrophic factors using Mouse Proteome Profiler Arrays (R&D Systems), and commercially available ELISAs (for select cytokines from protein arrays). Astrocytic gene expression are analyzed by RT-qPCR, and astrocyte protein expression are analyzed by western blotting as previously described (Lundquist et al, 2022).

## COc1cccc(OC)c1-n1c(NS(=O)(=O)[C@@H](C)[C@H](C)c2ncc(C)cn2)nnc1-c1cncc(C)c1 [BGE-105, (2S,3R)—N-(4-(2,6-dimethoxyphenyl)-5-(5-methyl-3-pyridinyl)-4H-1,2,4-triazol-3-yl)-3-(5-methyl-2-pyrimidinyl)-2-butanesulfonamide]
Mouse astrocyte cells; CON+105 (50 nM) versus CON
  concentration of CXCL1 and IL-6 in media of control astrocytes: no or minimal impacts
Mouse astrocyte cells; RAC+105, BGE-105 50 nM, versus RAC, p=0.0032
  astrocyte release of CXCL1 (FIG. 9): greatly reduced
Mouse astrocyte cells; RAC+BGE-105 50 nM
  CXCL1 concentration/release (FIG. 12): about 40000 pg/ml
  IL-6 concentration/release (FIG. 12): 5000 to 10000 pg/mL
Mouse astrocyte cells; RAC+BGE-105, 50 nM, versus RAC, p=0.0008
  astrocytic release of IL-6 (FIG. 9): reduced
[1]
  change of age-induced increase in BBB permeability in the OB: −28%
[2]; 250 nM BGE-105, 24 hours
  release of proinflammatory cytokines into astrocyte conditioned media (ACM): release less proinflammatory cytokines
[2]; untreated versus BGE-105 treated SOD1^G93A astrocytes
  NF-κB signaling activity: changes to NF-κB signaling activity
